Common to all, as to experiment: growth of human tumour cells (NCI), 48 h
Assay [1] has as its system HCT-116 colon.
Assay [2] relates to DU-145 prostate.
For assay [3], the system named is UO-31 renal.
Assay [4] concerns ACHN renal.
Assay [5] relates to SK-OV-3 ovarian.
The test system of assay [6] is LOX IMVI melanoma.
Assay [7] deals with OVCAR-5 ovarian.
The test system of assay [8] is NCI/ADR-RES ovarian.
For assay [9], the system named is NCI-H522 lung.
Assay [10] deals with T-47D breast.
Assay [11] deals with SF-268 CNS.

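Grown in 96-well plates, cells were treated for 48 hours with each compound at five concentrations. Insufficient inhibition: endpoint recorded as highest concentration tested. TGI is the concentration that stops growth completely.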 Some results are limits rather than exact numbers.

In the case of `CCOC(=O)C(C(=O)OCC)=C1NC2(c3ccccc3Nc3ccccc32)C(C#N)S1` (stereo not given), the TGI came to 27.6 µM in assay [1]; 28.4 µM in assay [2]; 25.3 µM in [3]; 52.8 µM in [4]; 53.8 µM in [5]; 26.5 µM in assay [6]. Moreover, the TGI in assay [7] came to 36.1 µM; in assay [8], 28.8 µM; in [9] it was 29.2 µM; in assay [10], 25.5 µM; in assay [11], 39 µM.
With `CCOC(=O)/C=C/CCO[Si](C)(C)C(C)(C)C`, the TGI in assay [1], in [2], in [3], in assay [4], in assay [5] and in assay [6] was over 100 µM in each case. Further, the TGI in assay [7], in assay [8], in [9], in [10] and in [11] was over 100 µM throughout.
As to `O=C(c1cccs1)N(C(=S)OCCOc1ccccc1)c1ccccc1`, the TGI in assay [1] was 44.6 µM; in [2], over 100 µM; in assay [4] it was 72.1 µM; in [5] it was 73.5 µM; in [6], 33.3 µM; in assay [7], 70.2 µM. Also, the TGI in assay [8] is 57.7 µM; in assay [9], 45.1 µM; in [10], over 100 µM; in assay [11], over 100 µM.
As for `COc1ccc(/C(Br)=C2\OC(=O)c3ccccc32)cc1`, the TGI in assay [1], in assay [2], in assay [3], in assay [4], in assay [5] and in assay [6] was over 10 µM each time. In addition, the TGI in assay [7], in assay [8], in [9], in assay [10] and in [11] was over 10 µM each time.
With `N[C@H](C(=O)O)[C@@H]1CC(Br)=NO1`, the TGI in assay [1], in assay [2], in assay [3], in assay [4], in [5] and in assay [6] was over 100 µM each time. For the same molecule, the TGI in assay [7], in assay [8], in assay [9], in assay [10] and in [11] was over 100 µM each time.
For `CCOC(=O)C1(F)S(=O)(=O)OCCOS1(=O)=O`, the TGI in assay [1], in assay [2], in assay [3], in assay [4], in assay [5] and in assay [6] was over 100 µM in each case. For the same molecule, the TGI in assay [7], in [8], in assay [9], in [10] and in assay [11] was over 100 µM in each case.
Consider `CCC(=O)C(CCN1CCC2(CCCc3ccccc32)CC1)(c1ccccc1)c1ccccc1`, for which the TGI in assay [1] was determined as 3.22 µM; in assay [2], 11.6 µM; in [3] it was 8.66 µM; in assay [4], 11.3 µM; in assay [5], 18.2 µM; in assay [6] it was 2.16 µM. The TGI worked out at 14.7 µM in assay [7]; 14.3 µM in [8]; 7.14 µM in assay [9]; 10.2 µM in assay [10]; 16.4 µM in assay [11].
`CCOP1(=O)CC(C)=C(Cl)C(O)C1` (stereo not given): the TGI in assay [1], in [2], in assay [3], in [4], in assay [5] and in assay [6] was over 100 µM each time. For the same molecule, the TGI in assay [7], in assay [8], in assay [9], in assay [10] and in assay [11] was over 100 µM in each case.
Turning to `[N-]=[N+]=NI1OC(=O)c2ccccc21`, the TGI in [1], in assay [2], in assay [3], in assay [4], in assay [5] and in assay [6] was over 100 µM each time. Moreover, the TGI in assay [7] was over 100 µM; in assay [8], over 100 µM; in assay [9], 40.6 µM; in assay [10], over 100 µM; in [11], over 100 µM.
`N#Cc1nc(-c2ccco2)oc1N`: the TGI in assay [1], in assay [2], in assay [3], in [4], in assay [5] and in assay [6] was over 10 µM each time. In addition, the TGI in [7], in assay [8], in assay [9], in assay [10] and in assay [11] was over 10 µM in each case.
For the molecule `CC(=O)Oc1ccc(/C=C/C(=O)OCCCOC(=O)/C=C/c2ccc(OC(C)=O)c(OC(C)=O)c2)cc1OC(C)=O`, the TGI in [1], in assay [2], in [3], in [4], in assay [5] and in [6] was over 100 µM each time. Moreover, the TGI in [7], in [8], in assay [9], in assay [10] and in [11] was over 100 µM each time.
Regarding `NC(=O)C(=CNC(=S)Nc1ccccc1)C(N)=O`, the TGI in assay [1], in assay [2], in assay [4], in assay [5], in assay [6] and in assay [7] was over 100 µM in each case. Moreover, the TGI in assay [8], in [9], in [10] and in assay [11] was over 100 µM each time.

For the origin of these results see PubChem BioAssay (NCI).
